Values of other authors, collected in article PMC7761982, “FDA-Approved Drugs with Potent In Vitro Antiviral Activity against Severe Acute Respiratory Syndrome Coronavirus 2” (Pharmaceuticals, 2020).

Test system: SARS-CoV-2
Settings: in vitro; read-out: IC50 against SARS-CoV-2 (reported); cited from earlier work

CC(=O)Oc1ccccc1C(=O)Nc1ncc([N+](=O)[O-])s1 [Nitazoxanide]
IC50: 2120 nM
